Laboratory results from PMC5443783, “Prostaglandin E2 glyceryl ester is an endogenous agonist of the nucleotide receptor P2Y6” (Scientific Reports, 2017).
Entries after “also recorded” stand apart in the source; their conditions may differ.

Key:
P2Y6 [1] = target: T1, P2Y6 (Homo sapiens, UniProt Q15077); experiment: IP3 assay in P2RY6-transfected HEK293 cells; assay type: cell-based; parameters: expressed in transfected cells; host or cells: HEK293; conditions: Fig. 3a, read-out: EC50, IP3 levels
Method: (§1) To measure intracellular IP3 the HitHunter® Inositol (1,4,5) Triphosphate Assay (DiscoveRx, USA) was used according to manufacturer′s protocol. HEK293 cells stably transfected with hP2RY6 were seeded in a 384-well Black microtiter plate (15,000 cells/well) (Greiner Bio One, Germany) and incubated with indicated concentrations of UDP and PGE2-G for 20 seconds. Reaction was stopped by adding 5 µl 0.2 N perchloric acid and measurement of IP3 was performed with the Fusion AlphaScreen multilabel reader (PerkinElmer Life Sciences) according to manufacturer′s protocol. To measure IP1, HEK293 cells expressing wildtype and mutant P2Y6 were seeded into 384-well plates (5,000 cells/well) 24 h prior assay. After aspiration of the medium, cells were incubated with indicated concentrations of agonists/antagonist for 1 h. IP1 measurements using the IP-one HTFR® assay kit (Cisbio assays, USA) were performed according to manufacturer′s protocol. The assays were performed with a final concentration of 1% DMSO.

RAW264.7 cells = experiment: Intracellular Ca2+ measurement in RAW264.7 cells; assay type: cell-based, mouse
Method: (§2) For fluorometric measurements of intracellular Ca^2+ levels with the FlexStationII instrument (Molecular Devices), RAW264.7 and H1819 cells were seeded into 96-well plates (3.0 × 10^4 cells/well) 24 h prior to assay. Ca^2+ measurements with transiently transfected HEK293 cells were performed 48 h after transfection. Cells were loaded with 200 µl Calcium 5 reagent (Explorer Kit, Molecular Devices, USA) for 60 min at 37 °C, and the assay was performed as described. Agonists and inhibitors were solved in DMSO (100x) and diluted […] in 96-well compound plates containing HBSS. 50 µl of compound solution were added to the assay plate resulting in final concentration of 1% DMSO. Fold-response was calculated by RFUmax − RFUmin (ligand)/RFUmax − RFUmin (vehicle). EC50 values were calculated by using GraphPad Prism6 software (GraphPad, USA).

P2Y6 [2] = target: T1, P2Y6; experiment: Agonist-induced receptor internalization, cell surface ELISA; assay type: cell-based; parameters: expressed in transfected cells; host or cells: HEK293; conditions: HEK293 transiently transfected with hP2RY6, time-dependent, Fig. 5e
Method: To estimate cell surface expression of heterologously expressed receptors carrying an N-terminal HA tag, an indirect cellular ELISA was used[57]. To determine the endogenous cell surface expression of P2Y6, the same ELISA procedure was performed with minor modifications. Briefly, after 4% paraformaldehyde fixation and blocking with 10% FBS, cells were incubated with the primary anti-P2Y6 antibody (sc-15215; Santa Cruz Biotechnology, USA) in 1:1,000 dilution for 1 h. After washing with PBS, cells were incubated with peroxidase-conjugated secondary antibody anti-goat IgG (sc-2020, Santa Cruz Biotechnology, USA) in 1:5,000 dilutions.

P2Y6 Y262 to alanine = target: T2, P2Y6 Y262 to alanine (Homo sapiens, UniProt Q15077, Y262A); experiment: IP1 accumulation assay, mutant P2Y6 Y262A; assay type: cell-based; conditions: Fig. 6d
T2 construct: expressed in transfected cells; host or cells: HEK293
Source text: (§3) cDNA from H1819 cells was used to amplify and clone the P2RY6 and CNR2 coding sequences. They were double-tagged with an N-terminal HA epitope and a C-terminal FLAG epitope and, for transient transfection, introduced into the mammalian expression vector pcDps[56]. All mutant constructs were generated by a PCR-based site-directed mutagenesis and fragment replacement strategy. For stable transfection, P2RY6 was sub-cloned into the pIRES-eGFP vector (CLONTECH Laboratories, USA). All constructs were verified by sequencing.
as §1, with “IP1 measurements using the IP-one HTFR® assay kit (Cisbio assays, USA) were performed according to manufacturer′s protocol. The assays were performed with a final concentration of 1% DMSO.” left out

HEK293 cells = experiment: Intracellular Ca2+ measurement in non-transfected HEK293 cells; assay type: cell-based, human; conditions: for effect on intracellular Ca2+: non-transfected HEK293 cells
Method: as §2

P2Y6 F252A = target: T3, P2Y6 F252A (Homo sapiens, UniProt Q15077, F252A); experiment: IP1 accumulation assay, mutant P2Y6 F252A; assay type: cell-based; conditions: for IP1 formation at mutant receptor: Fig. 6d
T3 construct: expressed in transfected cells; host or cells: HEK293
Source text: as §3, §1

P2Y1 = target: T4, P2Y1 (Homo sapiens, UniProt P47900); experiment: Intracellular Ca2+ release in HEK293 cells transfected with P2RY1; assay type: cell-based; conditions: HEK293 transfected with P2RY1, Fig. 3f
T4 construct: expressed in transfected cells; host or cells: HEK293
Method: as §2

[3] = test system: prostanoid receptors EP1–4, DP, FP, TP, or IP; parameters: method as in PMID 18297109, PMID 14766978, PMID 14757851; conditions: cited from earlier work
[4] = target: T5, cannabinoid receptor 2 (Cnr2) (Homo sapiens, UniProt P34972); experiment: Intracellular Ca2+ measurement in CNR2-transfected HEK293 cells; assay type: cell-based; conditions: 200 nM of 2-AG, Fig. 2c
T5 construct: expressed in transfected cells; host or cells: HEK293
Method: RAW264.7 cells were grown in DMEM supplemented with 10% FBS, A7r5 (rat […]) cells in DMEM with 10% FBS, and A431 (human squamous carcinoma) cells in RPMI supplemented with 10% FBS. All cell lines were grown at 37 °C in a humidified 5% CO2 incubator. For functional assays, receptor constructs were heterologously expressed in human embryonic kidney (HEK293) cells upon transient or stable transfection. Cells were grown in DMEM/F12 supplemented with 10% FBS, 100 units/ml penicillin, and 100 µg/ml streptomycin. For the cAMP-inhibition assay, ERK1/2 phosphorylation assay, and Ca^2+ mobilization assay, cells were split into 96-well plates (2.0 × 10^4 cells/well) and transfected with 250 ng vector construct using MACSfectin™ (Miltenyi Biotec, Germany) according to manufacturer’s protocol. Empty vector (mock) served as the negative control. For siRNA experiments, cells were seeded in 6-well plates (4.0 × 10^5 and 6.0 × 10^5 cells/well for RAW264.7 and H1819, respectively). […]
For fluorometric measurements of intracellular Ca^2+ levels with the FlexStationII instrument (Molecular Devices), RAW264.7 and H1819 cells were seeded into 96-well plates (3.0 × 10^4 cells/well) 24 h prior to assay. […] Fold-response was calculated by RFUmax − RFUmin (ligand)/RFUmax − RFUmin (vehicle). EC50 values were calculated by using GraphPad Prism6 software (GraphPad, USA).

P2Y12 = target: T6, P2Y12 (Homo sapiens, UniProt Q9H244); experiment: Intracellular Ca2+ release in HEK293 cells transfected with P2RY12; assay type: cell-based; conditions: HEK293 transfected with P2RY12, Fig. 3f
T6 construct: expressed in transfected cells; host or cells: HEK293
Method: as §2

T3 sequence (Q15077 whole entry F252A): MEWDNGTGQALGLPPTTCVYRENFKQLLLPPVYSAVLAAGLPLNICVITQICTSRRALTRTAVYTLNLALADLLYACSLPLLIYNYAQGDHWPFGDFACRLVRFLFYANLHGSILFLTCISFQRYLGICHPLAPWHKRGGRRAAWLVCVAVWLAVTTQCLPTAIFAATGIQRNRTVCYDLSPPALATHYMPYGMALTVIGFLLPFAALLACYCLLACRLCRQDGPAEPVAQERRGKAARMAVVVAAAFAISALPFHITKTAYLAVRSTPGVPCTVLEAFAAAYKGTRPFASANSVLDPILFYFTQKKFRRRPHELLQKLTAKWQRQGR
T1 sequence (Q15077 whole entry, the tested form may be a part): as the sequence (Q15077 whole entry F252A) above, with A252F counted along it
T2 sequence (Q15077 whole entry Y262A): as the sequence (Q15077 whole entry F252A) above, with A252F, Y262A counted along it
T6 sequence (Q9H244 whole entry, species assumed): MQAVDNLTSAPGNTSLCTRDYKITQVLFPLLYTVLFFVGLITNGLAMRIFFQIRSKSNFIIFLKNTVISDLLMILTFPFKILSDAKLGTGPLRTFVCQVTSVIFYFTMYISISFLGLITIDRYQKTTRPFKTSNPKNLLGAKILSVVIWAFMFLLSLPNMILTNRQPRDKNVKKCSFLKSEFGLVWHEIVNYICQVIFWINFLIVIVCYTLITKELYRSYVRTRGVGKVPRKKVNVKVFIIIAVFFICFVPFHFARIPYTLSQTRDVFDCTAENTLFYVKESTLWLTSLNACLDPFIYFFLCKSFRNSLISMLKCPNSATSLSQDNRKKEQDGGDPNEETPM
T4 sequence (P47900 whole entry, species assumed): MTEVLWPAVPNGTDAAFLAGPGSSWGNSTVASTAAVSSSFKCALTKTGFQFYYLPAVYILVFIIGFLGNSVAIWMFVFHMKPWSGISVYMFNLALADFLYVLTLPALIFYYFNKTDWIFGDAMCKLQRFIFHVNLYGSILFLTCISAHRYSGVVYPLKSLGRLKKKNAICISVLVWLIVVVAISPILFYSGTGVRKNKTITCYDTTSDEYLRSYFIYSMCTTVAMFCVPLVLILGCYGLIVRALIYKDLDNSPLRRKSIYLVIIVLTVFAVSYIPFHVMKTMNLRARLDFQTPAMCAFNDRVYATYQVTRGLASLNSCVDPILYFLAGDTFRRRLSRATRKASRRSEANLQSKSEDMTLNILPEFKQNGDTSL
T5 sequence (P34972 whole entry): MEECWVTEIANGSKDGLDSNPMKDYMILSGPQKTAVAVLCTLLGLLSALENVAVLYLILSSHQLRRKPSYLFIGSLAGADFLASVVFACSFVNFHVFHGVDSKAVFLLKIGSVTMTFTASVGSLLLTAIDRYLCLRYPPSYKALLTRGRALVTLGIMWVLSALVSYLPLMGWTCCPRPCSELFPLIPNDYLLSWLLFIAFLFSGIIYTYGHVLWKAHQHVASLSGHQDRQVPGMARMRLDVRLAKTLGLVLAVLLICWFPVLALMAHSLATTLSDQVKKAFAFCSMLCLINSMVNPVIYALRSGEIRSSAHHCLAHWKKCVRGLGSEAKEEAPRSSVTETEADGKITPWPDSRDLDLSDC

Compound | EC50 (P2Y6 [1]) [nM] | EC50 (RAW264.7 cells; Fig. 1d, read-out: EC50, intracellular Ca2+ release) [nM] | agonist-induced internalization of P2Y6 (cell surface expression) (P2Y6 [2]) | IP1 formation at mutant receptor (P2Y6 Y262 to alanine) | effect on intracellular Ca2+ (HEK293 cells) | EC50 (P2Y6 F252A; Fig. 6e) [nM] | IP1 formation at mutant receptor (P2Y6 F252A) | Maximum RFU for PGE2-G (RAW264.7 cells; control (1% DMSO) 1,560 ± 479) | Ca2+ release (P2Y1) | activation of known prostanoid receptors [3] | effect on intracellular Ca2+ [4] | Ca2+ release (P2Y12) | Maximum RFU for PGE2-G (HEK293 cells; HEK293 cells, control (1% DMSO) 2,106 ± 1,193)
O=c1ccn([C@@H]2O[C@H](COP(=O)(O)OP(=O)(O)O)[C@@H](O)[C@H]2O)c(=O)[nH]1 [UDP] | 2.7 ± 0.1 | 38.4 ± 1.9 | cell surface expression levels of P2Y6 were reduced; also recorded: induced a time-dependent internalization | significantly reduced activity | no effect | 12.7 ± 2.1 | efficacy remained unchanged | – | – | – | – | – | –
Prostaglandin E2 glyceryl ester [PGE2-G] | – | – | cell surface expression levels of P2Y6 were reduced; also recorded: induced a time-dependent internalization | fully activated | no effect | – | loss of PGE2-G-induced IP1 formation | 3,649 ± 678 RFU | not and neither P2Y1 nor P2Y12 showed activity | does not efficiently activate | did not | not and neither P2Y1 nor P2Y12 showed activity | 2,193 ± 252 RFU
